Source: article PMC10649961, “Novel Mitochondria-Targeted Amphiphilic Aminophosphonium Salts and Lipids Nanoparticles: Synthesis, Antitumor Activity and Toxicity” (Nanomaterials, 2023)
Like-named read-outs stand apart in the source and are kept apart here.

Columns and labels:
M-HeLa [1] = assay: cells; conditions: Homo sapiens, 48 h, read-out: Cytotoxic Effects (IC50)
MCF-7 [2] = system: MCF-7
HuTu 80 [3] = system: HuTu 80
[4] = system: Pseudomonas aeruginosa ATCC 9027; assay: Antimicrobial activity, serial microdilutions, Pa; format: cell-based; conditions: Pseudomonas aeruginosa; for MIC: ATCC9027, read-out: Minimum Inhibitory Concentration (MIC); for MBC: ATCC9027, read-out: Minimum bactericidal and fungicidal concentrations (MBC, MFC)
Procedure: (§1) The antimicrobial activity of test compounds was determined by serial microdilutions in 96-well plates using Mueller-Hinton broth for bacterial culture and Sabouraud broth for yeast culture. Cultures of Gram-positive bacteria were used in the experiment: Staphylococcus aureus ATCC 6538 P FDA 209P, Bacillus cereus ATCC 10702 NCTC 8035, Enterococcus faecalis ATCC 29212; Gram-negative bacteria: Escherichia coli ATCC 25922, Pseudomonas aeruginosa ATCC 9027; and yeast: Candida albicans ATCC 10231, purchased from the State Collection of Pathogenic Microorganisms and Cell Cultures “SCPM-Obolensk” (Obolensk, Russia). Methicillin-resistant strains of S. aureus (MRSA) were isolated from patients with chronic tonsillitis (MRSA-1) and sinusitis (MRSA-2) in the bacteriological laboratory of the Republican Clinical Hospital (Kazan, Russia). The experiments were carried out in triplicate.

SK-OV-3 [5] = system: SK-OV-3
M-HeLa [6] = system: M-HeLa
PANC-1 [7] = system: PANC-1
PC3 [8] = assay: cells; conditions: Homo sapiens, PC-3, 48 h, read-out: Cytotoxic Effects (IC50), PC3, MTT assay, 48 h
DU-145 [9] = assay: cells; conditions: Homo sapiens, DU-145, 48 h, read-out: Cytotoxic Effects (IC50), DU-145, MTT assay, 48 h
[10] = system: Enterococcus faecalis ATCC 29212; assay: Antimicrobial activity, serial microdilutions, Ef; format: cell-based; conditions: Enterococcus faecalis; for MIC: ATCC29212, read-out: Minimum Inhibitory Concentration (MIC); for MBC: ATCC29212, read-out: Minimum bactericidal and fungicidal concentrations (MBC, MFC)
Procedure: as §1

MRSA-2 = assay: Antimicrobial activity, serial microdilutions, MRSA-2; format: cell-based, S. aureus; conditions: Staphylococcus aureus; for MIC: read-out: Minimum Inhibitory Concentration (MIC); for MBC: read-out: Minimum bactericidal and fungicidal concentrations (MBC, MFC)
Procedure: as §1

MRSA-1 = assay: Antimicrobial activity, serial microdilutions, MRSA-1; format: cell-based, S. aureus; conditions: Staphylococcus aureus; for MIC: read-out: Minimum Inhibitory Concentration (MIC); for MBC: read-out: Minimum bactericidal and fungicidal concentrations (MBC, MFC)
Procedure: as §1

T98G [11] = assay: cells; conditions: Homo sapiens, 48 h, read-out: Cytotoxic Effects (IC50)
T98G [12] = system: T98G
MCF-7 [13] = assay: cells; conditions: Homo sapiens, MCF7, 48 h, read-out: Cytotoxic Effects (IC50)
PANC-1 [14] = assay: cells; conditions: Homo sapiens, PANC-1, 48 h, read-out: Cytotoxic Effects (IC50)
Hep G2 [15] = system: Hep G2
A549 [16] = system: A549
SK-OV-3 [17] = assay: cells; conditions: Homo sapiens, SK-OV-3, 48 h, read-out: Cytotoxic Effects (IC50)
Hep G2 [18] = assay: cells; conditions: Homo sapiens, HepG2, 48 h, read-out: Cytotoxic Effects (IC50)
[19] = system: Staphylococcus aureus ATCC 6538 P FDA 209P; assay: Antimicrobial activity, serial microdilutions, Sa; format: cell-based; conditions: Staphylococcus aureus; for MIC: read-out: Minimum Inhibitory Concentration (MIC); for MBC: read-out: Minimum bactericidal and fungicidal concentrations (MBC, MFC)
Procedure: as §1

HuTu 80 [20] = assay: cells; conditions: Homo sapiens, HuTu80, 48 h, read-out: Cytotoxic Effects (IC50)
[21] = system: Escherichia coli ATCC 25922; assay: Antimicrobial activity, serial microdilutions, Ec; format: cell-based; conditions: Escherichia coli; for MIC: ATCC25922, read-out: Minimum Inhibitory Concentration (MIC); for MBC: ATCC25922, read-out: Minimum bactericidal and fungicidal concentrations (MBC, MFC)
Procedure: as §1

A549 [22] = assay: cells; conditions: Homo sapiens, A549, 48 h, read-out: Cytotoxic Effects (IC50)
[23] = system: Candida albicans ATCC 10231; assay: Antimicrobial activity, serial microdilutions, Ca; format: cell-based; parameters: key to Minimum Inhibitory Concentration (MIC) / Minimum bactericidal and fungicidal concentrations (MBC, MFC): – means non-active; conditions: for MIC / MBC: Candida albicans, ATCC10231; for MIC: read-out: Minimum Inhibitory Concentration (MIC); for MBC: read-out: Minimum bactericidal and fungicidal concentrations (MBC, MFC)
Procedure: as §1

PC3 [24] = system: PC3
[25] = system: Bacillus cereus ATCC 10702 NCTC 8035; assay: Antimicrobial activity, serial microdilutions, Bc; format: cell-based; conditions: Bacillus cereus; for MIC: Bc, read-out: Minimum Inhibitory Concentration (MIC); for MBC: read-out: Minimum bactericidal and fungicidal concentrations (MBC, MFC)
Procedure: as §1

DU-145 [26] = system: DU-145
[27] = reference normal cell line not marked at the place (ns cells)
[28] = calculated relative to the cell line WI38 (a)
[29] = calculated relative to the cell line Chang liver (b)

Row | SMILES | IC50 (M-HeLa [1]) [µM] | MIC [4] [µM] | MBC [4] [µM] | IC50 (PC3 [8]) [µM] | IC50 (DU-145 [9]) [µM] | MIC [10] [µM] | MBC [10] [µM] | MIC (MRSA-2) [µM] | MBC (MRSA-2) [µM] | MIC (MRSA-1) [µM] | MBC (MRSA-1) [µM] | IC50 (T98G [11]) [µM] | IC50 (MCF-7 [13]) [µM] | IC50 (PANC-1 [14]) [µM] | IC50 (SK-OV-3 [17]) [µM] | IC50 (Hep G2 [18]) [µM] | MIC [19] [µM] | MBC [19] [µM] | IC50 (HuTu 80 [20]) [µM] | MIC [21] [µM] | further results
1 | CCCCCCCCCC[P+](c1ccccc1)(c1ccccc1)N(CC)CC [6d, Decyl(diethylamino)diphenylphosphonium iodide] | 0.24 ± 0.02 | 125 ± 10 | 125 ± 9 | 1.4 ± 0.1 | 0.43 ± 0.03 | 3.9 ± 0.3 | 250 ± 19 | 0.5 ± 0.03 | 0.9 ± 0.08 | 0.5 ± 0.03 | 0.9 ± 0.07 | 0.6 ± 0.05 | 1.6 ± 0.1 | 0.4 ± 0.03 | 3.9 ± 0.4 | 1.3 ± 0.1 | 0.9 ± 0.08 | 62.5 ± 5.4 | 0.35 ± 0.02 | 62.5 ± 5.3 | selectivity index (SI) (MCF-7 [2]; [27]): ns (ns—no selectivity); selectivity index (SI) (HuTu 80 [3]; [28]): 1.1; selectivity index (SI) (SK-OV-3 [5]; [27]): ns (ns—no selectivity); selectivity index (SI) (M-HeLa [6]; [28]): 1.6; selectivity index (SI) (PANC-1 [7]; [28]): 1.0; selectivity index (SI) (T98G [12]; [27]): ns (ns—no selectivity); selectivity index (SI) (Hep G2 [15]; [27]): ns (ns—no selectivity); selectivity index (SI) (A549 [16]; [27]): ns (ns—no selectivity); MBC [21]: 62.5 ± 5.5 µM; IC50 (A549 [22]): 8.2 ± 0.7 µM; MIC [23]: 62.5 ± 5.4 µM; MBC [23]: 250 ± 19 µM; selectivity index (SI) (PC3 [24]; [27]): ns (ns—no selectivity); MIC [25]: 0.9 ± 0.08 µM; MBC [25]: 250 ± 21 µM; selectivity index (SI) (DU-145 [26]; [28]): 1.0
2 | CCCCCCCCCC[P+](c1ccccc1)(N(CC)CC)N(CC)CC [5d, Decylbis(diethylamino)(phenyl)phosphonium iodide] | 1.5 ± 0.1 | 500 ± 48 | 500 ± 47 | 0.8 ± 0.06 | 0.45 ± 0.03 | 15.6 ± 1.2 | 125 ± 9 | 0.9 ± 0.08 | 62.5 ± 5.2 | 0.9 ± 0.08 | 125 ± 11 | 0.7 ± 0.05 | 0.7 ± 0.06 | 1.4 ± 0.1 | 10 ± 0.8 | 1.1 ± 0.09 | 0.9 ± 0.07 | 125 ± 9 | 2.5 ± 0.1 | 62.5 ± 5.4 | selectivity index (SI) (MCF-7 [2]; [29]): 1.9; selectivity index (SI) (HuTu 80 [3]; [27]): ns (ns—no selectivity); selectivity index (SI) (SK-OV-3 [5]; [27]): ns (ns—no selectivity); selectivity index (SI) (M-HeLa [6]; [27]): ns (ns—no selectivity); selectivity index (SI) (PANC-1 [7]; [27]): ns (ns—no selectivity); selectivity index (SI) (T98G [12]; [29]): 1.9; selectivity index (SI) (Hep G2 [15]; [29]): 1.2; selectivity index (SI) (A549 [16]; [27]): ns (ns—no selectivity); MBC [21]: 62.5 ± 5.3 µM; IC50 (A549 [22]): 8.9 ± 0.7 µM; Minimum bactericidal and fungicidal concentrations (MBC, MFC) ([23]; Ca): –; MIC [23]: 250 ± 21 µM; selectivity index (SI) (PC3 [24]; [29]): 1.6; MIC [25]: 0.9 ± 0.08 µM; MBC [25]: 500 ± 47 µM; selectivity index (SI) (DU-145 [26]; [29]): 2.9
3 | CCCCCCCCCCCCCC[P+](N(CC)CC)(N(CC)CC)N(CC)CC [4e, Tris(diethylamino)(tetradecyl)phosphonium bromide] | 0.4 ± 0.03 | 7.8 ± 0.6 | 7.8 ± 0.6 | 1.7 ± 0.1 | 0.4 ± 0.03 | 0.5 ± 0.04 | 1.9 ± 0.1 | 0.25 ± 0.02 | 0.25 ± 0.02 | 0.5 ± 0.04 | 0.5 ± 0.04 | 1 ± 0.09 | 0.9 ± 0.07 | 0.4 ± 0.03 | 1.7 ± 0.1 | 1.5 ± 0.1 | 0.25 ± 0.01 | 0.9 ± 0.07 | 0.06 ± 0.005 | 15.6 ± 1.3 | selectivity index (SI) (MCF-7 [2]; [29]): 1.9; selectivity index (SI) (HuTu 80 [3]; [29]): 28; selectivity index (SI) (SK-OV-3 [5]; [29]): 1.0; selectivity index (SI) (M-HeLa [6]; [29]): 4.3; selectivity index (SI) (PANC-1 [7]; [29]): 4.3; selectivity index (SI) (T98G [12]; [29]): 1.7; selectivity index (SI) (Hep G2 [15]; [29]): 1.1; selectivity index (SI) (A549 [16]; [29]): 1.0; MBC [21]: 62.5 ± 5.2 µM; IC50 (A549 [22]): 1.7 ± 0.1 µM; MIC [23]: 1.9 ± 0.1 µM; MBC [23]: 7.8 ± 0.6 µM; selectivity index (SI) (PC3 [24]; [29]): 1.0; MIC [25]: 0.5 ± 0.04 µM; MBC [25]: 7.8 ± 0.6 µM; selectivity index (SI) (DU-145 [26]; [29]): 4.3
